Experimental data reported in patent publication US10604535B2, “Compounds, compositions and methods” (Denali Therapeutics Inc., priority 2016, dated 2020).

How the values were obtained:
[1] = tested on: FADD-deficient Jurkat cells; test: Cellular necroptosis assay (human TNFα-induced necrosis, CellTiter-Glo); assay type: cell-based; conditions: Homo sapiens, Jurkat, 48 h, TNFα 10 ng/mL, read-out: Cell IC50
[2] = tested on: human cryopreserved hepatocytes; test: Metabolic stability (hepatocytes); conditions: human cryopreserved hepatocytes
Method: The metabolic stability of compounds was evaluated in human cryopreserved hepatocytes (BioreclamationlVT, NY, USA) in duplicate. Test articles (or controls) were added to a 24-well incubation plate (Becton Dickinson Labware, USA) containing 0.5×10^6 hepatocytes/mL in suspension. The plate was held at 37° C. and agitated with constant orbital shaking (orbital speed at 350 rpm). At each time point (0, 5, 10, 15, 20, 30, 45, 60, 90, 120, 150 and 180 min) a Tecan Evo robot aspirated 50 μL of the incubation mixture and 100 μL of acetonitrile containing internal standard to quench the reaction. […] Samples were centrifuged (3000 rpm for 10 minutes) and the plate sealed prior to injection onto an LC-MS/MS system.
The appropriate parent/daughter ions were monitored for the test article and IS with the LC-MS/MS system. The intrinsic clearance (Clint; expressed μL/min/million cells) was determined from the first order elimination constant (k, min^−1) of test article decay and the volume of the incubation. […] The intrinsic organ CL was then converted to the hepatic clearance (CLhep) using the well-stirred model as shown below, where Qh is human hepatic blood flow.
Hepatic clearance is expressed as mL/min/kg. The hepatic clearance relates to the flow of blood through the liver that is completely cleared of the compound.

[3] = molecular target: T1, GST-hRIPK1 (8-327) (Homo sapiens (Human), UniProt Q13546); test: ADP-Glo kinase assay; assay type: biochemical
Method: GST-hRIPK1 (8-327) enzyme was generated by Proteros GmbH by Baculovirus expression system.
Test compounds were diluted in DMSO and 0.1 μL of solution was dispensed to each well of a 384-well white solid microplate. The assay buffer was 50 mM HEPES pH 7.5, 50 mM NaCl, 30 mM MgCl2. The buffer was supplemented with 0.02% CHAPS, 0.01% of Pluronic F127, 0.1 mg/mL BSA and 1 mM DTT. MnCl2, 5 mM, was included in the assay buffer on the day of the experiment. The enzymatic reaction comprised 1.5 μg/mL GST-hRIPK1 (8-327) and 50 μM ATP for receptor interacting protein kinase 1 and 15 μM ATP. 5 μL of enzyme and 5 μL of ATP were added to the plate at twice the final assay concentration and incubated at room temperature for 3 hours. Following this reaction, 10 μL of ADP-Glo reagent (Promega) was added to each well and incubated for 40 min at room temperature. This stops the kinase reaction and depletes any remaining ATP. 20 μL of ADP-Glo detection reagent was then added to each well and incubated at room temperature for at least 15 minutes. The detection reagent converts ADP to ATP and introduces luciferase and luciferin to detect ATP. The luminescence is then measured with the Envision (PerkinElmer) plate reader. Test compound inhibition was expressed as percent inhibition of internal assay controls. For concentration response curves, normalized data is fit and IC50 determined using XL-fit (IDBS) for Excel. The IC50 were averaged to determine a mean value, for a minimum of two independent experiments.
Test compound inhibition was expressed as percent inhibition of internal assay controls. For concentration response curves, normalized data is fit and IC50 determined using XL-fit (IDBS) for Excel. The IC50 were averaged to determine a mean value, for a minimum of two independent experiments.

[4] = male, Sprague-Dawley Crl:CD(SD), in vivo, iv
Method: (§1) The protein binding in plasma was determined using a Rapid Equilibrium Dialysis Device (Thermo Scientific RED Device) or 96-well dialyzer apparatus (HTDialysis LLC). […] If required, plasma samples were pre-incubated (2 hours at 37° C.) with diisopropyl fluorophosphate (DFP) at the final concentration of 100 μM to prevent compound degradation due to amide hydrolysis. Appropriate volumes of spiked samples along with blank phosphate buffer were added to either device and incubated at 37° C. for a total of 5 hours with agitation at 500 rpm. Following incubation, an equal aliquot of dialysed matrix (plasma or buffer) is added to an equal volume of the opposite blank matrix such that the volume of buffer to plasma are equal. Mixed matrix samples were extracted by protein precipitation using acetonitrile containing the appropriate IS. Samples were then centrifuged for 10 min at 2800 rpm. Supernatants were collected and diluted and then injected on to an HPLC-MS/MS or UPLC-MS/MS system. Samples were analyzed by monitoring the appropriate parent/daughter ion transitions for the test and control compounds. The peak area ratios were used to measure test item concentrations. The fraction unbound (Afu) was determined as the ratio of the peak area ratio in buffer divided by the peak area ratio in plasma.
(§2) The PK properties of test articles were determined in male Sprague-Dawley Crl:CD(SD) rats, male Beagle dogs and male cynomolgus monkeys. Studies were conducted to the highest standards of animal welfare in accordance with national legislation and under approval of the internal animal care and use committees.
(§3) Compounds were administered by IV bolus to animals following an overnight fast. […] The formulations were administered at dose volumes ranging from 0.5-2 mL/kg. The IV dose ranged from 0.5-1 mg/kg.
(§4) Following dose administration, 8-9 serial blood samples were collected over 24 hours. Samples were mixed with anticoagulant and placed on wet ice prior to processing. Plasma was harvested following centrifugation, extracted using protein precipitation with acetonitrile containing IS. The processed supernatant was analyzed using UPLC or LC-MS/MS using specific parent/daughter ion pairs for the test article and IS. Plasma concentrations were determined using a calibration curve prepared using known concentrations of analyte. Pharmacokinetic parameters utilizing measured concentrations were calculated using Phoenix WinNonlin. The unbound plasma clearance was calculated as the ratio of the total body clearance divided by the fraction unbound in plasma.

[5] = male, cynomolgus monkey, in vivo, iv
Method: as §1, §2, §3, §4

[6] = molecular target: T1, GST-hRIPK1 (8-327); test: Fluorescent Polarization Binding (FP Binding) assay

T1 sequence (Q13546 8-327): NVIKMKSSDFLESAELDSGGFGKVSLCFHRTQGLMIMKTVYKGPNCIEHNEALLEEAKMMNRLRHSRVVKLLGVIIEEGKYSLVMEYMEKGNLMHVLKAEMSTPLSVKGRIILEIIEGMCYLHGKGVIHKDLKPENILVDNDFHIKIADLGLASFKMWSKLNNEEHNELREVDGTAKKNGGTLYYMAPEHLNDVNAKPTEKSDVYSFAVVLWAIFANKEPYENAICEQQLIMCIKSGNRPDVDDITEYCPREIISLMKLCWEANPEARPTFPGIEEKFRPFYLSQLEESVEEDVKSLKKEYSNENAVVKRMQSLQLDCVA

| Structure (SMILES) | Human hepatocyte CLhep Avg [2] [mL/min/kg] | IC50 [3] [nM] | IC50 [6] [nM] | also measured |
| --- | --- | --- | --- | --- |
| CN1C(=O)[C@@H](NC(=O)c2cc(Cc3ccccc3)on2)COc2ccccc21 [C, reference compound] | 19 | – | – | IC50 [1]: 1 nM |
| O=C(NC1CCc2ccccc2CC1)c1cc(Cc2ccccc2)on1 [Example 15, 5-benzyl-N-(6,7,8,9-tetrahydro-5H-benzo[7]annulen-7-yl)isoxazole-3-carboxamide] | – | > 10000 | – | – |
| Cc1cc(C(=O)N[C@H]2COc3ccccc3N(C)C2=O)n(Cc2ccccc2)n1 [Example 16, (S)-1-benzyl-3-methyl-N-(5-methyl-4-oxo-2,3,4,5-tetrahydrobenzo[b][1,4]oxazepin-3-yl)-1H-pyrazole-5-carboxamide] | – | > 10000 | – | – |
| CN1C(=O)[C@@H](NC(=O)c2cnn3c2[C@@H](c2ccccc2)CC3)COc2ccccc21 [Example 17, (R)—N—((S)-5-methyl-4-oxo-2,3,4,5-tetrahydrobenzo[b][1,4]oxazepin-3-yl)-4-phenyl-5,6-dihydro-4H-pyrrolo[1,2-b]pyrazole-3-carboxamide] | – | > 10000 | – | – |
| CN1C(=O)[C@@H](NCC(=O)NCc2ccccc2)COc2ccccc21 [Example 18, (S)—N-benzyl-2-((5-methyl-4-oxo-2,3,4,5-tetrahydrobenzo[b][1,4]oxazepin-3-yl)amino)acetamide] | – | > 10000 | – | – |
| CCN1C(=O)[C@@H](NC(=O)c2cc(Cc3ccccc3)on2)COc2ccccc21 [Example 19, (S)-5-benzyl-N-(5-ethyl-4-oxo-2,3,4,5-tetrahydrobenzo[b][1,4]oxazepin-3-yl)isoxazole-3-carboxamide] | – | 1000 to 10000 | – | – |
| CN1CC(NC(=O)c2nnc(Cc3ccccc3)[nH]2)CCc2ccccc21 (stereo not drawn) [Example 20, 5-benzyl-N-(1-methyl-2,3,4,5-tetrahydro-1H-benzo[b]azepin-3-yl)-4H-1,2,4-triazole-3-carboxamide] | – | 1000 to 10000 | – | – |
| O=C(N[C@H]1COC[C@H]2CCCN2C1=O)c1cc(Cc2ccccc2)on1 [Example 21, 5-benzyl-N-((4S,9aR)-5-oxohexahydro-1H,3H-pyrrolo[2,1-c][1,4]oxazepin-4-yl)isoxazole-3-carboxamide] | – | > 10000 | – | – |
| O=C(N[C@H]1COC[C@@H]2CCCN2C1=O)c1cc(Cc2ccccc2)on1 [Example 22, 5-benzyl-N-((4S,9aS)-5-oxohexahydro-1H,3H-pyrrolo[2,1-c][1,4]oxazepin-4-yl)isoxazole-3-carboxamide] | – | > 10000 | – | – |
| CN1CCCC[C@H](NC(=O)c2nnc(Cc3ccccc3)[nH]2)C1=O [Example 23, (S)-5-benzyl-N-(1-methyl-2-oxoazepan-3-yl)-4H-1,2,4-triazole-3-carboxamide] | – | > 10000 | – | – |
| CN1C(=O)[C@@H](NC(=O)c2ccc(C#N)n2C)COc2ccccc21 [Example 24, (S)-5-cyano-1-methyl-N-(5-methyl-4-oxo-2,3,4,5-tetrahydrobenzo[b][1,4]oxazepin-3-yl)-1H-pyrrole-2-carboxamide] | – | > 10000 | – | – |
| Cc1nnc(C(=O)N[C@H]2COc3ccccc3N(C)C2=O)[nH]1 [Example 25, (S)-5-methyl-N-(5-methyl-4-oxo-2,3,4,5-tetrahydrobenzo[b][1,4]oxazepin-3-yl)-4H-1,2,4-triazole-3-carboxamide] | – | > 10000 | – | – |
| CC(=O)N[C@H]1COc2ccccc2N(C)C1=O [Example 26, (S)—N-(5-methyl-4-oxo-2,3,4,5-tetrahydrobenzo[b][1,4]oxazepin-3-yl)acetamide] | – | > 10000 | – | – |
| O=C(N[C@H]1COC[C@@H]2CCCN2C1=O)c1nnc(Cc2ccccc2)[nH]1 [Example 27, 5-benzyl-N-((4S,9aS)-5-oxohexahydro-1H,3H-pyrrolo[2,1-c][1,4]oxazepin-4-yl)-4H-1,2,4-triazole-3-carboxamide] | – | > 10000 | – | – |
| CN1C(=O)[C@@H](NC(=O)c2nnc(Cc3ccccc3)[nH]2)[C@H]2C[C@H]2c2cccnc21 [Example 75A, 5-benzyl-N-((1aS,2S,8bR)-4-methyl-3-oxo-1,1a,2,3,4,8b-hexahydrocyclopropa[d]pyrido[2,3-b]azepin-2-yl)-4H-1,2,4-triazole-3-carboxamide] | 9.1 | – | – | Rat unbound CL [4]: 91 mL/min/kg; Cyno unbound CL [5]: 93 mL/min/kg |
| O=C(N[C@@H]1C(=O)Nc2c(F)cc(F)cc2[C@@H]2C[C@H]12)c1nnc(Cc2ccccc2)[nH]1 [Example 83A, 5-benzyl-N-((1aS,2S,8bR)-5,7-difluoro-3-oxo-1,1a,2,3,4,8b-hexahydrobenzo[b]cyclopropa[d]azepin-2-yl)-4H-1,2,4-triazole-3-carboxamide] | 1.0 | – | – | Cyno unbound CL [5]: 82 mL/min/kg |
| C[C@H]1Oc2cccnc2N(C)C(=O)[C@H]1NC(=O)c1nn(Cc2ccccc2)cc1F [Example 92, 1-benzyl-N-((2R,3S)-2,5-dimethyl-4-oxo-2,3,4,5-tetrahydropyrido[3,2-b][1,4]oxazepin-3-yl)-4-fluoro-1H-pyrazole-3-carboxamide] | – | – | 0.1 to 1000 | Rat unbound CL [4]: 420 mL/min/kg |
| C[C@H]1Oc2cccnc2N(C)C(=O)[C@H]1NC(=O)c1nnc(Cc2ccccc2)[nH]1 [Example 94, 5-benzyl-N-((2R,3S)-2,5-dimethyl-4-oxo-2,3,4,5-tetrahydropyrido[3,2-b][1,4]oxazepin-3-yl)-4H-1,2,4-triazole-3-carboxamide] | 4.9 | – | 0.1 to 1000 | Rat unbound CL [4]: 44 mL/min/kg; Cyno unbound CL [5]: 40 mL/min/kg |
| C[C@H]1Oc2cccnc2N(C)C(=O)[C@H]1NC(=O)c1nnc(Cc2ccccc2)o1 [Example 134, 5-Benzyl-N-((2R,3S)-2,5-dimethyl-4-oxo-2,3,4,5-tetrahydropyrido[3,2-b][1,4]oxazepin-3-yl)-1,3,4-oxadiazole-2-carboxamide] | 9.0 | – | 0.1 to 1000 | Rat unbound CL [4]: 100 mL/min/kg; Cyno unbound CL [5]: 140 mL/min/kg |
| CN1C(=O)[C@@H](NC(=O)c2nnc(Cc3ccccc3)o2)COc2cccnc21 [Example 146, (S)-5-benzyl-N-(5-methyl-4-oxo-2,3,4,5-tetrahydropyrido[3,2-b][1,4]oxazepin-3-yl)-1,3,4-oxadiazole-2-carboxamide] | 4.2 | – | 0.1 to 1000 | Rat unbound CL [4]: 61 mL/min/kg; Cyno unbound CL [5]: 39 mL/min/kg |
| C[C@H]1Oc2cccnc2N(C)C(=O)[C@H]1NC(=O)c1ncn(Cc2cccc(C#N)c2)n1 [Example 172, 1-(3-cyanobenzyl)-N-((2R,3S)-2,5-dimethyl-4-oxo-2,3,4,5-tetrahydropyrido[3,2-b][1,4]oxazepin-3-yl)-1H-1,2,4-triazole-3-carboxamide] | 5.3 | – | 0.1 to 1000 | Rat unbound CL [4]: 65 mL/min/kg |
| CN1C(=O)[C@@H](NC(=O)c2cn(Cc3ccccc3)nn2)[C@H]2C[C@H]2c2nccnc21 [Example 195, 1-benzyl-N-((7S,7aS,8aR)-5-methyl-6-oxo-5,6,7,7a,8,8a-hexahydrocyclopropa[d]pyrazino[2,3-b]azepin-7-yl)-1H-1,2,3-triazole-4-carboxamide] | 7.1 | – | 0.1 to 1000 | – |
| CN1C(=O)[C@@H](NC(=O)c2cc(Cc3ccccc3)on2)[C@H]2C[C@H]2c2nccnc21 [Example 197, 5-benzyl-N-((7S,7aS,8aR)-5-methyl-6-oxo-5,6,7,7a,8,8a-hexahydrocyclopropa[d]pyrazino[2,3-b]azepin-7-yl)isoxazole-3-carboxamide] | 13 | – | 0.1 to 1000 | – |
| CN1C(=O)[C@@H](NC(=O)c2nnc(Cc3ccccc3)s2)[C@H]2C[C@H]2c2nccnc21 [Example 198, 5-benzyl-N-((7S,7aS,8aR)-5-methyl-6-oxo-5,6,7,7a,8,8a-hexahydrocyclopropa[d]pyrazino[2,3-b]azepin-7-yl)-1,3,4-thiadiazole-2-carboxamide] | 8.5 | – | 0.1 to 1000 | – |
| [2H]C([2H])([2H])N1C(=O)[C@@H](NC(=O)c2nn(Cc3ccccc3)cc2F)[C@@H](C)Oc2ncccc21 [Example 205, 1-benzyl-N-((3S,4R)-1-trideuteriomethyl-4-methyl-2-oxo-1,2,3,4-tetrahydropyrido[2,3-b][1,4]oxazepin-3-yl)-4-fluoro-1H-pyrazole-3-carboxamide] | 11 | – | 0.1 to 1000 | – |
